Active and inactive are the calls of the source.
How the values were obtained:
[1] = HepG2 cell cytotoxicity, dose response, cytotoxicity control, cherry-picks, set 5 (AID 1053118); format: functional, cell-based
[2] = HEK293 cell cytotoxicity, dose response, cytotoxicity control, cherry-picks, set 5 (AID 1053117); format: functional, cell-based
[3] = target: T1, Sentrin-specific protease 1 (Homo sapiens, UniProt Q9P0U3); assay: potency of human SENP1 inhibitors, dose response, biochemical, kinetic FRET (AID 651697); format: functional; details: read-out: IC50_Mean
T1 sequence (Q9P0U3 whole entry): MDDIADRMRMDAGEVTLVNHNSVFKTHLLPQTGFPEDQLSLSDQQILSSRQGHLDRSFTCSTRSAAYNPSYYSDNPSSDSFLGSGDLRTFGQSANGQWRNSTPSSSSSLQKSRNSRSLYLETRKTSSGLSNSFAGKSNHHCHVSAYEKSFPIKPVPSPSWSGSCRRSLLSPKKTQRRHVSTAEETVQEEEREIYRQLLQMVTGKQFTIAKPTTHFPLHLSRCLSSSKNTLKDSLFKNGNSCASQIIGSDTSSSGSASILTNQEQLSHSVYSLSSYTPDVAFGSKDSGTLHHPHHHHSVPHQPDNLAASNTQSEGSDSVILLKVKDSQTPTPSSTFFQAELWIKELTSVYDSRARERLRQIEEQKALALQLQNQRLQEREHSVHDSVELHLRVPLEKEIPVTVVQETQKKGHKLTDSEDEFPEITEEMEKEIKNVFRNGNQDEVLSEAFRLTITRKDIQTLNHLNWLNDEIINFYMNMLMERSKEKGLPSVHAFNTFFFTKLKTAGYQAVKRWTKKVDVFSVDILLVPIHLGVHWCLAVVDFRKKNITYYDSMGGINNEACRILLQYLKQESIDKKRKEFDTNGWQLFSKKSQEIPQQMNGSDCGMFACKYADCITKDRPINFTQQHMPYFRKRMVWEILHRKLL

[4] = target: T1, Sentrin-specific protease 1; assay: Dose response confirmation of small molecule inhibitors of the catalytic domain of the SUMO protease, SENP1 in a FRET assay.; format: functional; details: read-out: IC50_Mean
Beta-lactamase [5] = target: Beta-lactamase (Salmonella choleraesuis (strain SC-B67), UniProt Q5J463); assay: Epi-absorbance-based counterscreen for selective VIM-2 inhibitors: dose response biochemical high throughput screening assay to identify inhibitors of TEM-1 serine-beta-lactamase.
Beta-lactamase [6] = target: T2, Beta-lactamase (Pseudomonas aeruginosa, UniProt Q79MP6); assay: IMP-1 metallo-beta-lactamase inhibitors, dose response, selectivity assay for VIM-2 inhibitor project, biochemical, epi-absorbance (AID 1920)
Beta Lactamase [7] = target: T3, Beta Lactamase (Pseudomonas aeruginosa, UniProt Q932Y6); assay: VIM-2 metallo-beta-lactamase inhibitor potency, dose response, biochemical, epi-absorbance readout, selective inhibitors (AID 1919)
Beta-lactamase [8] = target: T2, Beta-lactamase; assay: […] counterscreen for selective VIM-2 inhibitors: dose response biochemical high throughput screening assay to identify inhibitors of IMP-1 metallo-beta-lactamase.
Beta Lactamase [9] = target: T3, Beta Lactamase; assay: VIM-2 inhibitor FRET-based artefact check, dose response, artefact control for selective VIM-2 inhibitor project, biochemical, FRET readout, CCF2 substrate (AID 1926)
[10] = A549 cell cytotoxicity, dose response, cytotoxicity control, plate reader, cherry-pick, antagonist series (AID 743412); format: functional, cell-based
[11] = HepG2 cell cytotoxicity, dose response, cytotoxicity control, plate reader, cherry-pick, antagonist series (AID 743416); format: functional, cell-based
[12] = LGR2 antagonists, dose response, cell-based, HEK293, CRE-luciferase reporter, cherry pick (AID 743342); format: functional
[13] = MC4R antagonists, dose response, counter-screen for LGR2 antagonist project, cell-based, plate reader, cherry pick (AID 743444); format: functional;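 also: transfected HEK 293 cells stimulated with alpha-MSH peptide; potency of inhibitors of the alpha-MSH evoked signal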
[14] = HEK293 cell cytotoxicity, dose response, cytotoxicity control, plate reader, cherry-picked samples (AID 743446); format: functional, cell-based
[15] = inhibitors of intracellular T. cruzi replication, confirmation, NIH3T3 host cells, beta-gal luminescence (AID 2044); format: functional, cell-based;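 also: intracellular parasites grown in NIH/3T3 mouse fibroblasts as host cells; luminescent beta-galactosidase reporter signal from transgenic T. cruzi replicating inside host cells; inhibitors lower the luminescence signal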
[16] = cytotoxicity toward NIH3T3 fibroblasts, dose response, counter-screen, cell-based, ATP luminescence, mouse fibroblasts (AID 2010); format: functional;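 also: cells exposed to compound for about 90 hours before reading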
[17] = target: Disintegrin and metalloproteinase domain-containing protein 17 (Homo sapiens, UniProt P78536); assay: exosite inhibitors of ADAM17, dose response, biochemical (AID 743260)
[18] = ADAM10 protease inhibitors, dose response, selectivity assay for ADAM17 exosite inhibitor project, biochemical, FRET peptide substrate, recombinant human ADAM10 (AID 743259);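 also: ADAM10 enzyme cleaving a FRET peptide substrate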
[19] = target: T4, High affinity choline transporter 1 (Homo sapiens, UniProt Q9GZV3); assay: CHT choline uptake inhibitors, dose response, cell-based, HEK-293 hCHT, [3H]-choline uptake (AID 652177); format: functional
T4 sequence (Q9GZV3 whole entry): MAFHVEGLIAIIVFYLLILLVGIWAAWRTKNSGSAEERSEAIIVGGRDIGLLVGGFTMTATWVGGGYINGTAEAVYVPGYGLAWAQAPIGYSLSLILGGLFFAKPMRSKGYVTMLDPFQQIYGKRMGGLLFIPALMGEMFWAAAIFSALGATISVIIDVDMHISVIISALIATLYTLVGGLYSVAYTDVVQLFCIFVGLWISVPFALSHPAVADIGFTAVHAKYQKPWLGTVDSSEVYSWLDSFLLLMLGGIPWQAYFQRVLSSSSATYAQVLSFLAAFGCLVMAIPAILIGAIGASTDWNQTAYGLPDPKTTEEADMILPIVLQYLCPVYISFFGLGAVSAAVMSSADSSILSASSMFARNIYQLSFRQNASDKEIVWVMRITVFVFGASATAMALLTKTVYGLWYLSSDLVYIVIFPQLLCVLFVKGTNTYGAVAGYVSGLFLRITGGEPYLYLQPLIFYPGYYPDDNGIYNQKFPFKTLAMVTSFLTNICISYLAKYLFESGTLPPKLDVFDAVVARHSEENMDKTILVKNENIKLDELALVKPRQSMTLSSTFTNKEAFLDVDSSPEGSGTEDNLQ

Cryptococcus neoformans = assay: PubChem AID 686997; format: functional, organism-based
HeLa = assay: HeLa cell cytotoxicity, dose response, cytotoxicity control, ATP luminescence, cherry-pick samples (AID 687004); format: functional, cell-based; details: Homo sapiens
HEK293 = assay: HEK293T cell cytotoxicity, dose response, cytotoxicity control, ATP luminescence, cherry-pick samples (AID 687005); format: functional, cell-based; details: Homo sapiens;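 also: cells exposed to compound for 48 hours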
[20] = HEK293 Cytotoxicity Assay Measured in Cell-Based System Using Plate Reader - 7071-01_Inhibitor_Dose_CherryPick_Activity_Set2.; format: functional
[21] = target: T5, Scavenger receptor class B member 1 (Mus musculus, UniProt Q61009); assay: inhibitors of SR-BI dependent HDL uptake, dose response, ldlA[mSR-BI] CHO cells, fluorescence plate reader, dry powder, set 9 (AID 623880); format: functional, cell-based
[22] = target: T5, Scavenger receptor class B member 1; assay: inhibitors of SR-BI-mediated HDL uptake, dose response, cell-based, ldlA[mSR-BI] CHO, DiI fluorescence, dry powder, set 10 (AID 624029); format: functional
cells = format: functional, cell-based
[23] = target: Nuclear receptor subfamily 0 group B member 1 (Homo sapiens, UniProt P51843); format: functional, cell-based;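 also: HEK293T cells transfected with SF-1 and DAX-1 plus StAR promoter luciferase reporter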
[24] = HEK293T cell cytotoxicity, dose response, cytotoxicity control for HIV Vif inhibitor project, cherry-picks (AID 652208); format: functional, cell-based
Coagulation factor XII = target: T6, Coagulation factor XII (Homo sapiens, UniProt P00748); assay: Factor XIIa Dose Response Confirmation from Single Well HTS. [Related pubchem assays (depositor defined):AID701]; format: functional
T6 sequence (P00748 whole entry): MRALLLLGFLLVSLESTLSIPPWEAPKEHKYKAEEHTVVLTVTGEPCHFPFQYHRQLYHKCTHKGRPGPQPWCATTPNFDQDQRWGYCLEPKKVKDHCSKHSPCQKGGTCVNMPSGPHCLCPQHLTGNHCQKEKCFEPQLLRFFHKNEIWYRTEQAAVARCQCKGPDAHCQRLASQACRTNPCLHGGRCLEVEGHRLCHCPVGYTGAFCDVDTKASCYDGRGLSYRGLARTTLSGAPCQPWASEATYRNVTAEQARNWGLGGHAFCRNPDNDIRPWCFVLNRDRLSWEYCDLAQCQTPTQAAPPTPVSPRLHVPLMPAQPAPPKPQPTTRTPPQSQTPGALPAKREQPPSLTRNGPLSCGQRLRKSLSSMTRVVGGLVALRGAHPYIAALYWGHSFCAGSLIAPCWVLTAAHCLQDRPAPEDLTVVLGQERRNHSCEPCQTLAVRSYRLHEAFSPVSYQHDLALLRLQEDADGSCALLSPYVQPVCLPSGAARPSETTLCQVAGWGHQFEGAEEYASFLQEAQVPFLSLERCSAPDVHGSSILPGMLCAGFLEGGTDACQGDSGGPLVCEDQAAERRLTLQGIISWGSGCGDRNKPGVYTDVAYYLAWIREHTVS

Mu-type opioid receptor = Mu-type opioid receptor (Homo sapiens, UniProt P35372); format: functional, cell-based;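 also: U2OS cells with beta-arrestin recruitment to OPRM1 by beta-gal complementation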
[25] = target: 5-hydroxytryptamine receptor 2A (Mus musculus, UniProt P35363); format: functional, cell-based;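 also: CHO-K1 cells with tagged receptor and beta-arrestin; agonist potency measured as compound-induced activation of the receptor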
[26] = target: Metabotropic glutamate receptor 3 (Rattus norvegicus, UniProt P31422); assay: mGlu3 NAM potency via calcium readout, dose response, mGlu3 NAM project, TREx293 cells, Galpha15, calcium flux (AID 651840); format: functional
[27] = lymphoblastoid cell cytotoxicity, dose response, cytotoxicity control, plate reader, dry powder, set 2 (AID 624367); format: functional
[28] = A Cell-Based Confirmatory Screen for Compounds that Inhibit VEEV, TC-83 (3).; format: functional
Paired box protein Pax-8 = Paired box protein Pax-8 (Homo sapiens, UniProt Q06710); assay: inhibitors of PAX8-driven TPO luciferase reporter, dose response, RMG-I cells, cherry-pick (AID 687027); format: functional, cell-based;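 also: luciferase reporter driven by Pax8 target thyroperoxidase promoter measured by SteadyGlo luminescence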
[29] = IGROV1 ovarian cancer cell cytotoxicity, dose response, PAX8 inhibitor project, plate reader, dry powder samples (AID 743043); format: functional, cell-based; details: IGROV-1
[30] = cytotoxicity in OVCAR8 ovarian cancer cells, dose response, PAX8 project, cell-based, plate reader, dry powder samples (AID 743197); format: functional; details: OVCAR-8

T3 sequence (Q932Y6 whole entry): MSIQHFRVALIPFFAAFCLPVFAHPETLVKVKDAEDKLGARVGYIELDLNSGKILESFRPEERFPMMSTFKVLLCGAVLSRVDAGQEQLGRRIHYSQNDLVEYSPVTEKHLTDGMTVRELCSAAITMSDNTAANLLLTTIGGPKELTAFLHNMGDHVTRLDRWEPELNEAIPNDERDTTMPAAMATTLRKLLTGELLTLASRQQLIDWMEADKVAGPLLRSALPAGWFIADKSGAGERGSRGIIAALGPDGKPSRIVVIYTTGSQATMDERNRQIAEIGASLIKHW
T2 sequence (Q79MP6 whole entry): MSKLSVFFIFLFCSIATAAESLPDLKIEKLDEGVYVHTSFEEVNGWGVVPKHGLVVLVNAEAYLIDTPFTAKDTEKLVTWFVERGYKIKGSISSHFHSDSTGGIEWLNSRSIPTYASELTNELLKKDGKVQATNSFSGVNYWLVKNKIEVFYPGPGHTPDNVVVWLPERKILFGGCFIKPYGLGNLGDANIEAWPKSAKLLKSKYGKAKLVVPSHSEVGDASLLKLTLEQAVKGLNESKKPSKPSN
T5 sequence (Q61009 whole entry): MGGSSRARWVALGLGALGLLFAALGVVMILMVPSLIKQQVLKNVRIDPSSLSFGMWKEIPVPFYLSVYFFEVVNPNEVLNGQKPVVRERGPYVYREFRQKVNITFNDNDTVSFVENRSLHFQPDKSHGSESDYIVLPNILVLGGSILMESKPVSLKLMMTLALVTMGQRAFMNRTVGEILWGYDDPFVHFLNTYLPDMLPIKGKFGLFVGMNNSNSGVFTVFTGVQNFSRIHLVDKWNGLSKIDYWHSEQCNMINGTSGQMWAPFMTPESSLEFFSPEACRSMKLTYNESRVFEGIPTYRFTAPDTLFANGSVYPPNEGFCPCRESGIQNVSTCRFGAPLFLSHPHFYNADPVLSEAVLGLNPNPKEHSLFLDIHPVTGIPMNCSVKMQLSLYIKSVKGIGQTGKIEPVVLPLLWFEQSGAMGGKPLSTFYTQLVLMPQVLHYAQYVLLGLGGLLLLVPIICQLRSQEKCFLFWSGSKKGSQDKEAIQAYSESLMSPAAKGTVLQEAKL
Chain of Paired box protein Pax-8 (Q06710 whole entry): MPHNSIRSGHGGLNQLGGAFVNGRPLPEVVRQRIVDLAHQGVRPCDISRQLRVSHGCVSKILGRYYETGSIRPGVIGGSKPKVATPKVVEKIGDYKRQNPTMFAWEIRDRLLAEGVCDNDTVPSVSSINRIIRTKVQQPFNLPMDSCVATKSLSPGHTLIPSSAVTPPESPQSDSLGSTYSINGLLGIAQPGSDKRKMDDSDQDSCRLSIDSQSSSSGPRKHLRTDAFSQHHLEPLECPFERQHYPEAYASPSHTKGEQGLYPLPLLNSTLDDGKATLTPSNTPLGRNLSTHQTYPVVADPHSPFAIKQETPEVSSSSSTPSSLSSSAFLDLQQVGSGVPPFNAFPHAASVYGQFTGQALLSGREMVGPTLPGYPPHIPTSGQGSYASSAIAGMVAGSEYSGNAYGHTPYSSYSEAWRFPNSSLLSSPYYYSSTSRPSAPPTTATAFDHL
Chain of Beta-lactamase (Salmonella choleraesuis (strain SC-B67), UniProt Q5J463) (Q5J463 whole entry): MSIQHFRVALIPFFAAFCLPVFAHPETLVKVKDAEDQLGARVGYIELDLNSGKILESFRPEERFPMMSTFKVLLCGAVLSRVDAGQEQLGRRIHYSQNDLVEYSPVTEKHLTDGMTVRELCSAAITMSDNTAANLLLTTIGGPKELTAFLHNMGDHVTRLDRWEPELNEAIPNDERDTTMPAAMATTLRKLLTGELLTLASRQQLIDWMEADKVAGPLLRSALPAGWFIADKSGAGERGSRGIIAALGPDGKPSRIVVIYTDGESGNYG
Chain of Metabotropic glutamate receptor 3 (P31422 whole entry): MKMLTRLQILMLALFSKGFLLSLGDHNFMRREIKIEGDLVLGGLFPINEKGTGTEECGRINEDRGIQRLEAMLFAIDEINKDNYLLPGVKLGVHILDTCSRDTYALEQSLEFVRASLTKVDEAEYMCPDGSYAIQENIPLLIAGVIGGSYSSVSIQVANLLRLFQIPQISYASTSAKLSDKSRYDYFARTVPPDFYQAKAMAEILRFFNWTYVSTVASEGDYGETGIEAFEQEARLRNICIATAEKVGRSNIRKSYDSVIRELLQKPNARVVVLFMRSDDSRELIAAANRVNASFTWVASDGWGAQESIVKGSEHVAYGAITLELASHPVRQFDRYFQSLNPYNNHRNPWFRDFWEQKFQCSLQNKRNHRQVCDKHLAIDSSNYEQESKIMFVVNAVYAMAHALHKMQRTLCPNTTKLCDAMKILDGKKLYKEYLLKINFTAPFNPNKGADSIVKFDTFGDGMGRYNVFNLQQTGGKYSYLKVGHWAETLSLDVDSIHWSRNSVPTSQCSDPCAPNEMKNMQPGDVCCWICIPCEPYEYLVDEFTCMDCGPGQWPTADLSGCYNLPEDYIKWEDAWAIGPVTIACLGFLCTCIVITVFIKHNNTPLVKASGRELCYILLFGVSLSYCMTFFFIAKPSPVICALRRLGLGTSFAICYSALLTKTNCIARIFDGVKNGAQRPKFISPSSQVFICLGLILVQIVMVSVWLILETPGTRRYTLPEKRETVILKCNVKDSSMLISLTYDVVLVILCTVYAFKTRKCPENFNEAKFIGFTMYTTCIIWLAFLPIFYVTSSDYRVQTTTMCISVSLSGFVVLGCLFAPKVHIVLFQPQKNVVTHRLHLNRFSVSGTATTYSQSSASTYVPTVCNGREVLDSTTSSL
Chain of 5-hydroxytryptamine receptor 2A (P35363 whole entry): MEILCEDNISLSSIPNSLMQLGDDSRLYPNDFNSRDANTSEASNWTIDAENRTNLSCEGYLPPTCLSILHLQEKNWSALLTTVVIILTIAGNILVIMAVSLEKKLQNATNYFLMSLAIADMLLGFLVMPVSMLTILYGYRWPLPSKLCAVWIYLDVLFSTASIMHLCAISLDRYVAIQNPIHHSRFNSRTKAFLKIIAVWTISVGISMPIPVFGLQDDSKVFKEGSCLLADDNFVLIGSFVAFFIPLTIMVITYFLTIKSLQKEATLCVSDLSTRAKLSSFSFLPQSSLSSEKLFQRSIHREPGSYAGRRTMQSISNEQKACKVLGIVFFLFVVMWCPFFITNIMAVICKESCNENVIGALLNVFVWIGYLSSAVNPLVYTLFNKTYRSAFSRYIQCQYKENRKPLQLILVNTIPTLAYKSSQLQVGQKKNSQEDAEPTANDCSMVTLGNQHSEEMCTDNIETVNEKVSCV
Chain of Disintegrin and metalloproteinase domain-containing protein 17 (P78536 whole entry, the tested form may be a part): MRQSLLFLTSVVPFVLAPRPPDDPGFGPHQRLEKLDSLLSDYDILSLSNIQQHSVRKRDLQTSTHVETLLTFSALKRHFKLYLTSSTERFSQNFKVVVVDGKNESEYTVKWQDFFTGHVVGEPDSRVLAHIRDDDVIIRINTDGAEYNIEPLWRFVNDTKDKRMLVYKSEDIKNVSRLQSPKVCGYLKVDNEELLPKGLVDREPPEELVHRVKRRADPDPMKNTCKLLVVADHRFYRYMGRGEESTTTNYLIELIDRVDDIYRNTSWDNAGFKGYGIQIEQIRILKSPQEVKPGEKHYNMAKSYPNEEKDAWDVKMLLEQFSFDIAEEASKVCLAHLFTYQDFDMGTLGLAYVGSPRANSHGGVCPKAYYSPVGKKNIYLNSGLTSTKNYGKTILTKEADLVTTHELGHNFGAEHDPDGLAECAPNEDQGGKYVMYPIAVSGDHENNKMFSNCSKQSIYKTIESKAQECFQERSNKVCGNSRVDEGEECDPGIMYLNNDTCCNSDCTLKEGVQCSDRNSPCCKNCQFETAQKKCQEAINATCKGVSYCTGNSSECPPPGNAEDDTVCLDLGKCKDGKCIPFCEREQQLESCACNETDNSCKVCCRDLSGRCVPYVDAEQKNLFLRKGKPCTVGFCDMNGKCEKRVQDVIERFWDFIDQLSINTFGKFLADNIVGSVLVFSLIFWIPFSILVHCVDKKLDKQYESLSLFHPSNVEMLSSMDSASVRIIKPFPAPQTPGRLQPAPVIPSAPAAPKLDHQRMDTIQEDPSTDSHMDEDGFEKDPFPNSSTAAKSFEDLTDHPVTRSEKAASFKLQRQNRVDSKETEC
Chain of Nuclear receptor subfamily 0 group B member 1 (P51843 whole entry): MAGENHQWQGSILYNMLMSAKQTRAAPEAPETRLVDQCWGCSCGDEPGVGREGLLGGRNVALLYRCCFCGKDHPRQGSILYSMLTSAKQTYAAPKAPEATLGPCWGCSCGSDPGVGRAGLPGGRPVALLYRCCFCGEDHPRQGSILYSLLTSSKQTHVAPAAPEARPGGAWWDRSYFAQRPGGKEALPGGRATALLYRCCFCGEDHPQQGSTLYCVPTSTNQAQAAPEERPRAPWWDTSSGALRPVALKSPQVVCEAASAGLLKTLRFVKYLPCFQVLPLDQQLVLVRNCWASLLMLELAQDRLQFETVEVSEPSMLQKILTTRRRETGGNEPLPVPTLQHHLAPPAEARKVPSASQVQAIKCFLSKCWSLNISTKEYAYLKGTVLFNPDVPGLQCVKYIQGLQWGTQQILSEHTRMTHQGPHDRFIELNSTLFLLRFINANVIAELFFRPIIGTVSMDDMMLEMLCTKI
Chain of Mu-type opioid receptor (P35372 whole entry): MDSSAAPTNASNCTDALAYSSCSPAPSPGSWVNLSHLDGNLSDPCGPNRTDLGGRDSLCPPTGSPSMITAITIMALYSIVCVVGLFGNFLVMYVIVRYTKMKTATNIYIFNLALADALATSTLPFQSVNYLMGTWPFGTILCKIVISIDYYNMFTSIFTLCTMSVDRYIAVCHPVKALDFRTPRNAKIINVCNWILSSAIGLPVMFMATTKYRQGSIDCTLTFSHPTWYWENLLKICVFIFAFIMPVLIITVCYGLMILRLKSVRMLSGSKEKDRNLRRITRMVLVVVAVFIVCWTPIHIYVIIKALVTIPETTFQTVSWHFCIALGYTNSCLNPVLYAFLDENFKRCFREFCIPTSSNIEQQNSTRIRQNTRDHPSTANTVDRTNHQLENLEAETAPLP

CO[C@@H]1CN(C)C(=O)c2cc(NC(=O)Nc3cc(Cl)cc(Cl)c3)ccc2OC[C@H](C)NC[C@@H]1C
AC50 [1]: 13.1 µM (active)
AC50 [2]: 15.8 µM (active)

COc1ccc(N2C(=O)C3C(C2=O)C(C(=O)c2ccc(Cl)cc2)N2CCCC32)cc1 (configuration not stated)
IC50 [3]: 5.56 µM (active)
IC50 [4]: 4.36 µM (active)

COc1ccc(OC)c(/C=N/NC(=O)CC2C(=O)NN=C2C)c1 (configuration not stated)
IC50 (Beta-lactamase [5]): > 59.6 µM (inactive)
IC50 (Beta-lactamase [6]): > 59.6 µM (inactive)
IC50 (Beta Lactamase [7]): 6.1 µM (active)
IC50 (Beta-lactamase [8]): > 59.6 µM (inactive)
IC50 (Beta Lactamase [9]): 2.13 µM (active)

COc1ccc(NC(=O)Nc2ccc3c(c2)C(=O)N([C@H](C)CO)C[C@H](C)[C@H](CN(C)CC2CCCCC2)OCCCC[C@H](C)O3)cc1
AC50 [10]: 17.9 µM (active)
AC50 [11]: 13.7 µM (active)
AC50 [12]: 38.9 µM (active)
AC50 [13]: 42.7 µM (active)
AC50 [14]: 40.3 µM (active)

COC(=O)C1=C(c2cc3ccccc3s2)C[C@@H]2CC[C@H]1N2C(=O)NCc1ccc(C(F)(F)F)cc1
EC50 [15]: 3.12 µM (active)
EC50 [16]: 8.21 µM (active)
IC50 [17]: > 69.5 µM (inactive)
IC50 [18]: > 7.72 µM (active)

CCn1cc(CNC(=O)c2ccc(OC)c(OC3CCN(C(C)C)CC3)c2)cn1
IC50 [19]: 6.81 µM (active)

COC(=O)C1=C(C)N(Cc2ccc(Cl)cc2)C(=S)NC1c1cccc(OC)c1 (configuration not stated)
AC50 (Cryptococcus neoformans): 57.5 µM (active)
AC50 (HeLa): > 52 µM (inactive)
AC50 (HEK293): 11.4 µM (active)
AC50 [20]: 11.4 µM (active)

C[C@@H]1CN([C@H](C)CO)C(=O)c2cc(NC(=O)C3CCOCC3)ccc2O[C@H]1CN(C)S(=O)(=O)c1ccc(Cl)cc1
AC50 [21]: 34.2 µM (active)
AC50 [22]: 34.8 µM (active)

CC(=O)Nc1ccc(-c2ccnc3c2CC(C(=O)NCc2ccco2)O3)cc1 (configuration not stated)
IC50 (cells): > 67.5 µM (inactive)
IC50 [23]: > 67.5 µM (inactive)

CCOC(=O)C1CCN(S(=O)(=O)c2cccc(-c3cn4cc(C)ccc4n3)c2)CC1
AC50 [24]: > 52 µM (inactive)

CCOC(=O)N1CCN(C/C(C)=C/c2ccccc2)CC1
IC50 (Coagulation factor XII): > 50 µM (inactive)
EC50 (Mu-type opioid receptor): 92.5 µM (inactive)
EC50 [25]: 11.5 µM (inactive)

COc1ccc(C#Cc2ccc(C(=O)N3CCC(=O)C(C)(C)C3)cc2)cc1
IC50 [26]: 3.13 µM

Cc1cc(C(=O)Nc2ccc3c(c2)C(=O)N(C)[C@@H]2CC[C@H](CC(=O)NCc4ccc(-c5ccccc5)cc4)O[C@@H]2CO3)no1
AbsAC35 [27]: 211.39 µM

O=c1c2cc([N+](=O)[O-])ccc2nc(CN2CCOCC2)n1-c1ccccc1F
IC50 [28]: 9.6 µM (active)

COc1cccc(-c2ccc([C@H]3[C@@H](CO)N(C(=O)c4ccccn4)[C@H]3C#N)cc2)c1
AC50 (Paired box protein Pax-8): 7.31 µM (active)
AC50 [29]: 68.1 µM (active)
AC50 [30]: 39.2 µM (active)
